The values below are quoted from earlier work in US7582314B2, “Compositions and methods for the management of hyperproliferative dermatological conditions” (Sami Labs Ltd., priority 2003, dated 2009).

Data set [1] has as its system damage to the skin induced by UV radiation. Particulars: topical; human subjects.
Data set [2] has the same test system. Particulars: topical; experimental animals.
The subject of another data set is plaque psoriasis. Particulars: oral supplementation; psoriasis patients.

Molecules are shown by their SMILES. Read-outs that look alike come from different tables or passages of the source.

`C[Se]CC[C@H](N)C(=O)O` [selenomethionine]: the “degree of damage to the skin induced by UV radiation” value in data set [1] and in data set [2] was “reduces” in each case. For the same compound, the “efficacy as adjuvant treatment in plaque psoriasis” value in the data set with plaque psoriasis was “ineffective”.
